The values below come from EP2727916A1, “Neuroprotective multi-target directed drugs” (Universitat Autònoma de Barcelona, priority 2012, dated 2014).

The target of assay [1] is electrophorus electricus acetylcholinesterase (eeAChE) (Electrophorus electricus, UniProt O42275). In words: biochemical. Type of assay: biochemical.
The target of assay [2] is equine serum butyrylcholinesterase (eqBuChE) (Equus caballus, UniProt P81908). Briefly: biochemical. The assay is classed as biochemical.
Another assay has as its target T1, MAO-A (Rattus norvegicus, UniProt P21396).
T1 construct: from tissue; host or cells: rat brain homogenate per the methods
T1 sequence (P21396 1-526): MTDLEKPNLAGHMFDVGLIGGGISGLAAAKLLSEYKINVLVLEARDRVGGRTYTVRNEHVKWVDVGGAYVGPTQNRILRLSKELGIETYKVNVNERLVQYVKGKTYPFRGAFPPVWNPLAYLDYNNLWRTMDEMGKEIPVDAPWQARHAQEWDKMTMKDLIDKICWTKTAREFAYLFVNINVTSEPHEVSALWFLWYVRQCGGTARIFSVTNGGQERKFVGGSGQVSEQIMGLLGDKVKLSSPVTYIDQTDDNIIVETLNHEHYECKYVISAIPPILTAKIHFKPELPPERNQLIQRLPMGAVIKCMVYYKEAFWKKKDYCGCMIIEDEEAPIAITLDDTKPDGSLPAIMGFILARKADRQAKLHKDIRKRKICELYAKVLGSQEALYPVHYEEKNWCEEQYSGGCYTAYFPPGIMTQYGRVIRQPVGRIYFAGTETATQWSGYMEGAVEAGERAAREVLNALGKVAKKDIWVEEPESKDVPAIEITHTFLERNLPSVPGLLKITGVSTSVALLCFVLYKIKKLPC
In words: Reversibility study of MAO-A inhibition (centrifugation and washing). The assay is classed as biochemical. Here is the method: (§1) Lineweaver-Burk reciprocal plots of initial velocity and substrate concentrations (0.1-1 mM) are presented. […] Lineweaver-Burk reciprocal plots of initial velocity and substrate concentrations (0.1-1 mM) are presented. […] Lineweaver-Burk reciprocal plots of initial velocity and substrate concentrations (0.1-1 mM) are presented. […] Three consecutive centrifuges were performed with buffer. […] 5 µM). All solution were made using Tris buffer pH7.4. […] 5 µM). All solution were made using Tris buffer pH7.4. […] 5 µM). All solution were made using Tris buffer pH7.4. Spectra were obtained after a Short-time incubation

For another assay, the target named is T2, MAO-B (Rattus norvegicus, UniProt P19643).
T2 construct: from tissue; host or cells: rat brain homogenate per the methods
T2 sequence (P19643 1-520): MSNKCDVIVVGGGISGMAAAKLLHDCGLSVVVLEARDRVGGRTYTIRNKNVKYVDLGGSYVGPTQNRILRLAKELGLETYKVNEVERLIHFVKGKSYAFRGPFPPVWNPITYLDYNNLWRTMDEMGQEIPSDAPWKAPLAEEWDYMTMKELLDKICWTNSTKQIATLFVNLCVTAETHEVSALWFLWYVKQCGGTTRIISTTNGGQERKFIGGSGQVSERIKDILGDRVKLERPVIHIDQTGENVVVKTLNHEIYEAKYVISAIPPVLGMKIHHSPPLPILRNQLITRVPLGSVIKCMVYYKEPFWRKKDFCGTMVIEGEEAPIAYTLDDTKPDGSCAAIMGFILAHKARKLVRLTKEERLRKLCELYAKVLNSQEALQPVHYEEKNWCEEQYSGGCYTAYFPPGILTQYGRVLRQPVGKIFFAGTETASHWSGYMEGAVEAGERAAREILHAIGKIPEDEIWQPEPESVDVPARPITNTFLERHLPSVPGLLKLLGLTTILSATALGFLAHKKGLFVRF
In words: Reversibility study of MAO-B inhibition (centrifugation and washing). The assay is classed as biochemical. The protocol:
as §1

Assay [3] is described as follows: Metal binding assay, spectrophotometric detection of Fe(III) complex. Type of assay: physicochemical. The conditions noted are these: 10 µM, Tris buffer pH7.4, Fe2(SO4)3 6.25 and 12.5 µM. Here is the method:
Lineweaver-Burk reciprocal plots of initial velocity and substrate concentrations (0.1-1 mM) are presented. […] Lineweaver-Burk reciprocal plots of initial velocity and substrate concentrations (0.1-1 mM) are presented. […] Lineweaver-Burk reciprocal plots of initial velocity and substrate concentrations (0.1-1 mM) are presented. […] Three consecutive centrifuges were performed with buffer. […] 5 µM). All solution were made using Tris buffer pH7.4. […] 5 µM). All solution were made using Tris buffer pH7.4. […] 5 µM). All solution were made using Tris buffer pH7.4. […]
It is known that 8-quinolinol is a strong chelator for biometals such iron and copper. This is an important precondition for the antioxidative-type drugs because it is the excessive iron stores and iron-mediated generation of free radicals in the brain that are thought to be associated with neurodegenerative diseases. Therefore, only chelators with a higher selectivity for iron over copper are expected to chelate iron instead of copper and have potential neuroprotective effects. […] A spectrophotometric method is used for measurement of the copper/iron-complexes stability constants of the compounds.
The metal binding assay was performed by the spectrophotometric detection of the formation of Fe(III)- and Cu(II)-6 complex.

The next assay concerns the target T3, ratMAO-A (Rattus norvegicus, UniProt P21396).
T3 sequence (P21396 1-526): T1 sequence (P21396 1-526)
Briefly: Kinetic study of MAO-A inhibition (Lineweaver-Burk plots). The arrangement: from tissue; host or cells: rat brain homogenate per the methods. The assay is classed as biochemical. The protocol: as §1

The target in assay [4] is T4, ratMAO-B (Rattus norvegicus, UniProt P19643).
T4 sequence (P19643 1-520): T2 sequence (P19643 1-520)
Briefly: Kinetic study of MAO-B inhibition (Lineweaver-Burk plots). Type of assay: biochemical. The arrangement: from tissue; host or cells: rat brain homogenate per the methods. Here is the method: as §1

Assay [5] has as its target T4, ratMAO-B. In words: MAO-B inhibition, radiometric method of Fowler and Tipton (14C PEA). The arrangement: MAO-A and MAO-B activities were determined in rat brain homogenate; from tissue; host or cells: rat brain homogenate per the methods. The assay is classed as biochemical.
The mark [6] stands for this setting: Lineweaver-Burk reciprocal plots.
Setting [7] is: estimated from the slopes of double reciprocal plots.

Sequence of equine serum butyrylcholinesterase (eqBuChE) (P81908 whole entry): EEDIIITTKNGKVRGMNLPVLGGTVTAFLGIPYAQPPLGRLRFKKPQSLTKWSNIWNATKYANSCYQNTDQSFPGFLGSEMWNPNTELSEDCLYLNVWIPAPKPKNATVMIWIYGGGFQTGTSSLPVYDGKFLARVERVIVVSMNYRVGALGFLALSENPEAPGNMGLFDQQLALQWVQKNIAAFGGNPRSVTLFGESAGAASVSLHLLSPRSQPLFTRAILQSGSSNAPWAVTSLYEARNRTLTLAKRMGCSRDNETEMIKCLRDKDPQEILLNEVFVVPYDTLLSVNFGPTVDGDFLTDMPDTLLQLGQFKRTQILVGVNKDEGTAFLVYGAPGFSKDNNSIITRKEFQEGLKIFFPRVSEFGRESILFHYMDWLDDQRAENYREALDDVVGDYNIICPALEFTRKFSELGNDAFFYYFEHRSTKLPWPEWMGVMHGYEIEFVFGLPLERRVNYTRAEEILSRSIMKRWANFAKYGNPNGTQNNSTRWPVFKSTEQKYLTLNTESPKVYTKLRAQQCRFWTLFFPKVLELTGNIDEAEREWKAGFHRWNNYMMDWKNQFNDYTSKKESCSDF
Sequence of electrophorus electricus acetylcholinesterase (eeAChE) (O42275 24-633): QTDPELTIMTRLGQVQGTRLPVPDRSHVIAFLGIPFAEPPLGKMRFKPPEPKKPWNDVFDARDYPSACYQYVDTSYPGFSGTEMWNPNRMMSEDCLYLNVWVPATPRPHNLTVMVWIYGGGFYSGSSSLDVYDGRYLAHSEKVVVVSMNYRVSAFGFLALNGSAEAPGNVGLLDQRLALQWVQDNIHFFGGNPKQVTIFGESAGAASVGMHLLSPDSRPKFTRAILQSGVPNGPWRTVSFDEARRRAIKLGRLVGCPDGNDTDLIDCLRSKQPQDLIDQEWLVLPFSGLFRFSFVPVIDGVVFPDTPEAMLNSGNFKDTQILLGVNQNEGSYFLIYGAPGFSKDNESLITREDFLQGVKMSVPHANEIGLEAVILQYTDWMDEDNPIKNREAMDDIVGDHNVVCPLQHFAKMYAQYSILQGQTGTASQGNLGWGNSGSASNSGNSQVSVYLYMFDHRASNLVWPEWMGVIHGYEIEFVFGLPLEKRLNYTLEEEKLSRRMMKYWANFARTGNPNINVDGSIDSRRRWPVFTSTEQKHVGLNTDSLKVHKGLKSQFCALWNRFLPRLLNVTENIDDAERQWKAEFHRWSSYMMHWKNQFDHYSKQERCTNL

`C#CCN(Cc1ccc(O)c2ncccc12)C(C#N)CCC1CCN(Cc2ccccc2)CC1` (stereo not drawn) [Compound 6, 4-(1-benzylpiperidin-4-yl)-2-(((8-hydroxyquinolin-5-yl)methyl)(prop-2-yny)amino)butanenitrile]: the IC50 (usually the concentration at which inhibition is half-maximal) was determined as 1.77 ± 0.1 µM in assay [1]; 1.63 ± 0.25 µM in assay [2] (20 minutes incubation at 37°C, mean ± standard error of the mean, read-out: IC50 eqBuChE); 10.2 ± 0.9 µM on ratMAO-B [5]. In addition, the “fold more active than M-30 for the inhibition of AChE” value in assay [1] (compared with M-30) is 64 fold. Moreover, in assay [2], the “fold more active than donepezil 1 for eqBuChE inhibition” value is listed as 4.5 fold. Moreover, the “BuChE/ AChE” value in assay [2] (ratio of IC50 values) is given as 0.92. Besides, the “reversibility of MAO-A inhibition” value at MAO-A (30 min inhibition (6 at 10 µM, clorgyline 50 nM), three consecutive centrifugations and washings with buffer) is listed as “reversibly inhibited”. At MAO-A (inhibited at 10 µM for 30 min, three consecutive centrifuges with buffer, mean ± SEM), this compound came in with an MAO-A activity recovering of 56.5 ± 9.3%. Moreover, the “reversibility of MAO-B inhibition” value on MAO-B (30 min inhibition (6 at 20 µM, I-deprenyl 20 nM), three consecutive centrifugations and washings with buffer) was “reversibly inhibited”. In addition, the MAO-B activity recovering at MAO-B (inhibited at 20 µM for 30 min, three consecutive centrifuges with buffer, mean ± SEM) came out at 55.8 ± 4.0%. Further, the “formation of Fe(III)-6 complex, UV-vis spectrum change” value in assay [3] (few minutes after addition) is given as “no significative changes in the spectrum were observed”; in assay [3] (overnight incubation), “bathocromic shift of the 240nm-band to the appearance of another one at 250nm”. The “type of MAO-A inhibition mechanism” value at ratMAO-A (setting [6]) was “non-competitive inhibition”. The Ki (commonly the equilibrium dissociation constant of an inhibitor or competing ligand from its target) was 8.41 ± 1.32 µM at ratMAO-A (setting [7]) and 10.8 ± 2.43 µM on ratMAO-B [4] (setting [7]). Moreover, the “type of MAO-B inhibition mechanism” value at ratMAO-B [4] (setting [6]) is on record as “non-competitive inhibition”. Further, the “MAO-B/ MAO-A” value on ratMAO-B [5] is on record as 1.7. In addition, the “fold less active than M-30 for the inhibition of MAO-B” value on ratMAO-B [5] worked out at 179 fold.
